Test results as given in article PMC3050878, “Correlation of Membrane Binding and Hydrophobicity to the Chaperone-Like Activity of PDC-109, the Major Protein of Bovine Seminal Plasma” (PLoS ONE, 2011).

How the values were obtained:
PDC-109 [1] = target: T1, PDC-109 (Bos taurus, UniProt P02784); assay: fluorescence titration, Scatchard analysis; format: binding; settings: read-out: K a (converted)
T1 construct: native, purified from bovine seminal plasma (Sephadex G-50 gel filtration, DEAE Sephadex A-25); mature 109 residues, two FnII domains, O-glycosylated; polydisperse oligomers
T1 sequence (P02784 26-134): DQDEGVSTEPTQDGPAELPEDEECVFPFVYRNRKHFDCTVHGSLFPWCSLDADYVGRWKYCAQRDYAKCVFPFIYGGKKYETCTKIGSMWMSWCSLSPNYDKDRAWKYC

PDC-109 [2] = target: T1, PDC-109; assay: near-UV CD; format: binding; settings: sonicated unilamellar vesicles, 0.1 mM lipid, pH 7.4, room temperature
PDC-109 [3] = target: T1, PDC-109; assay: ANS fluorescence in presence of PrC; settings: 10 mM PrC, 50 µM ANS, 0.05 mg/mL protein; lowers ANS binding
PDC-109 [4] = target: T1, PDC-109; assay: isothermal titration calorimetry, sequential binding model; settings: read-out: Ka × 10^3 (M^-1) (converted)
Excerpt: isothermal titration calorimetry, sequential binding model on PDC-109

`O=S(=O)(O)c1cccc2cccc(Nc3ccccc3)c12` [ANS, 8-anilinonaphthalene sulphonic acid] showed a Kd (PDC-109 [1]) of 32.4 µM.

In the case of `CCCCCCCCCCCCCC(=O)OC[C@H](COP(=O)([O-])OCC[N+](C)(C)C)OC(=O)CCCCCCCCCCCCC` [DMPC], the “near-UV CD” value (PDC-109 [2]) is reported as “the protein tertiary structure is altered upon phospholipid binding”.

For `CCCCCCCCCCCCCC(=O)OC[C@H](COP(=O)(O)OCC(O)CO)OC(=O)CCCCCCCCCCCCC` (some centres unmarked) [DMPG], the “near-UV CD” value (PDC-109 [2]) was “the protein tertiary structure is altered upon phospholipid binding”.

With `C[N+](C)(C)CCOP(=O)([O-])O` [PrC] the “ANS fluorescence in presence of PrC” value (PDC-109 [3]) was “PrC binding leads to a significant decrease in the surface hydrophobicity of the protein”.

In the case of `O=S(=O)(O)c1cccc2c(-c3ccc(Nc4ccccc4)c4c(S(=O)(=O)O)cccc34)ccc(Nc3ccccc3)c12` [bisANS, 4,4′-Dianilino-1,1′-binaphthyl-5,5′-disulphonic acid], the Kd (PDC-109 [4]) is reported as 389 µM.
